Measurements published in the supplement of paper PMC8612539.
In brackets after ≈: the same amount, converted by molar mass.

Test system: Mannheimia haemolytica
Experiment: minimum inhibitory concentration (MIC)
Experimental: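 Broth microdilution MIC (Sensititre BOPO7F bovine plate, CLSI methods) of 19 antimicrobials against field isolates of P. multocida, M. haemolytica, H. somni (deep nasopharyngeal swabs) and E. coli, Enterococcus spp. (rectal swabs) from weaned dairy heifers. Incubation 16-24 h at 35 C. MIC is the lowest concentration preventing visible growth. Values with <= or > lie at the tested range limits. Trimethoprim-sulfamethoxazole is given as the trimethoprim component of a 1:19 mixture.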

CCCN1C[C@H](C)[C@@H](O)[C@](C)(O)[C@@H](CC)OC(=O)[C@H](C)[C@@H](O[C@H]2C[C@@](C)(OC)[C@@H](O)[C@H](C)O2)[C@H](C)[C@@H](O[C@@H]2O[C@H](C)C[C@H](N(C)C)[C@H]2O)[C@](C)(O)C[C@H]1C [Gamithromycin]
Conditions	minimum inhibitory concentration [µg/mL]
isolate (source animal id): 8	≤ 1
isolate (source animal id): 13	≤ 1
isolate (source animal id): 18	≤ 1
isolate (source animal id): 21	≤ 1
isolate (source animal id): 25	4 (≈ 5.15 µM)
isolate (source animal id): 27	4 (≈ 5.15 µM)
isolate (source animal id): 28	2 (≈ 2.57 µM)
isolate (source animal id): 30	≤ 1
isolate (source animal id): 31	2 (≈ 2.57 µM)
isolate (source animal id): 32	≤ 1
isolate (source animal id): 34	≤ 1
isolate (source animal id): 36	4 (≈ 5.15 µM)
isolate (source animal id): 37	4 (≈ 5.15 µM)
isolate (source animal id): 40	≤ 1
isolate (source animal id): 41	≤ 1
isolate (source animal id): 43	≤ 1
isolate (source animal id): 46	4 (≈ 5.15 µM)
isolate (source animal id): 49	2 (≈ 2.57 µM)
isolate (source animal id): 50	4 (≈ 5.15 µM)
isolate (source animal id): 51	≤ 1
isolate (source animal id): 52	≤ 1
isolate (source animal id): 53	≤ 1
isolate (source animal id): 55	≤ 1
isolate (source animal id): 56	≤ 1
isolate (source animal id): 57	> 8
isolate (source animal id): 100	2 (≈ 2.57 µM)
isolate (source animal id): 103	4 (≈ 5.15 µM)
isolate (source animal id): 107	2 (≈ 2.57 µM)
isolate (source animal id): 108	2 (≈ 2.57 µM)
isolate (source animal id): 112	> 8
isolate (source animal id): 113	> 8
isolate (source animal id): 121	4 (≈ 5.15 µM)
isolate (source animal id): 122	8 (≈ 10.3 µM)
isolate (source animal id): 123	> 8
isolate (source animal id): 126	> 8
isolate (source animal id): 133	> 8
isolate (source animal id): 135	> 8
isolate (source animal id): 138	> 8
isolate (source animal id): 141	> 8
isolate (source animal id): 142	> 8
isolate (source animal id): 145	2 (≈ 2.57 µM)
isolate (source animal id): 149	2 (≈ 2.57 µM)
isolate (source animal id): 151	2 (≈ 2.57 µM)
isolate (source animal id): 152	4 (≈ 5.15 µM)
isolate (source animal id): 154	≤ 1
isolate (source animal id): 159	> 8
isolate (source animal id): 162	> 8
isolate (source animal id): 170	2 (≈ 2.57 µM)
isolate (source animal id): 171	≤ 1
isolate (source animal id): 172	2 (≈ 2.57 µM)
isolate (source animal id): 173	2 (≈ 2.57 µM)
isolate (source animal id): 179	≤ 1
isolate (source animal id): 180	≤ 1
isolate (source animal id): 183	≤ 1
isolate (source animal id): 186	≤ 1
isolate (source animal id): 187	2 (≈ 2.57 µM)
isolate (source animal id): 188	≤ 1
isolate (source animal id): 190	≤ 1
isolate (source animal id): 191	2 (≈ 2.57 µM)
isolate (source animal id): 192	≤ 1
isolate (source animal id): 201	2 (≈ 2.57 µM)
isolate (source animal id): 202	2 (≈ 2.57 µM)
isolate (source animal id): 209	2 (≈ 2.57 µM)
isolate (source animal id): 211	2 (≈ 2.57 µM)
isolate (source animal id): 220	2 (≈ 2.57 µM)
isolate (source animal id): 221	≤ 1
isolate (source animal id): 223	2 (≈ 2.57 µM)
isolate (source animal id): 233	2 (≈ 2.57 µM)
isolate (source animal id): 237	4 (≈ 5.15 µM)
isolate (source animal id): 241	4 (≈ 5.15 µM)
isolate (source animal id): 252	8 (≈ 10.3 µM)
isolate (source animal id): 253	8 (≈ 10.3 µM)
isolate (source animal id): 259	> 8
isolate (source animal id): 260	8 (≈ 10.3 µM)
isolate (source animal id): 262	4 (≈ 5.15 µM)
isolate (source animal id): 282	> 8
isolate (source animal id): 287	8 (≈ 10.3 µM)
isolate (source animal id): 288	≤ 1
isolate (source animal id): 291	≤ 1
isolate (source animal id): 293	8 (≈ 10.3 µM)
isolate (source animal id): 298	> 8
isolate (source animal id): 299	> 8
isolate (source animal id): 300	≤ 1
isolate (source animal id): 302	> 8
isolate (source animal id): 304	> 8
isolate (source animal id): 306	≤ 1
isolate (source animal id): 308	≤ 1
isolate (source animal id): 309	≤ 1
isolate (source animal id): 313	> 8
isolate (source animal id): 318	8 (≈ 10.3 µM)
isolate (source animal id): 320	≤ 1
isolate (source animal id): 321	> 8
isolate (source animal id): 323	> 8
isolate (source animal id): 324	8 (≈ 10.3 µM)
isolate (source animal id): 326	> 8
isolate (source animal id): 328	> 8
isolate (source animal id): 329	> 8
isolate (source animal id): 333	> 8
isolate (source animal id): 335	8 (≈ 10.3 µM)
isolate (source animal id): 338	8 (≈ 10.3 µM)
